This is an account of results in PMC8550792, “Evolution of kinase polypharmacology across HSP90 drug discovery” (Cell Chemical Biology, 2021).

What all share (test): biochemical
Holding throughout (format): biochemical

Assay [1] deals with T1, 382 unique human kinases (Homo sapiens, UniProt P24723).
T1 construct: purchased Reaction Biology (HotSpot contract assay)
The settings on record: PKCeta, 10 uM; for remaining activity at 10 µM: read-out: % Enzyme Activity (relative to DMSO controls).

Assay [2] has as its target T2, 382 unique human kinases (Homo sapiens, UniProt Q5VT25).
T2 construct: purchased Reaction Biology (HotSpot contract assay)
Particulars: kinase MRCKa/CDC42BPA, compound 10 uM; for remaining activity at 10 µM: read-out: % Enzyme Activity (relative to DMSO controls).

Assay [3] concerns the target T3, 382 unique human kinases (Homo sapiens, UniProt Q13237).
T3 construct: purchased Reaction Biology (HotSpot contract assay)
Particulars: PKG2/PRKG2; compound at 10 uM; duplicate values; read-out: % Enzyme Activity (relative to DMSO controls).

Assay [4] addresses T4, 382 unique human kinases (Homo sapiens, UniProt P00519, T315I).
T4 construct: purchased Reaction Biology (HotSpot contract assay)
The settings on record: ABL1 (T315I), 10 uM; for remaining activity at 10 µM: read-out: % Enzyme Activity (relative to DMSO controls).

The target in assay [5] is T5, 382 unique human kinases (Homo sapiens, UniProt P10721).
T5 construct: purchased Reaction Biology (HotSpot contract assay)
Particulars: c-Kit, 10 uM; for remaining activity at 10 µM: read-out: % Enzyme Activity (relative to DMSO controls).

In assay [6] the target is T6, 382 unique human kinases (Homo sapiens, UniProt Q9UKE5).
T6 construct: purchased Reaction Biology (HotSpot contract assay)
The settings on record: TNIK, 10 uM; for remaining activity at 10 µM: read-out: % Enzyme Activity (relative to DMSO controls).

For assay [7], the target named is T7, 382 unique human kinases (Homo sapiens, UniProt Q15835).
T7 construct: purchased Reaction Biology (HotSpot contract assay)
T7 sequence (Q15835 1-563): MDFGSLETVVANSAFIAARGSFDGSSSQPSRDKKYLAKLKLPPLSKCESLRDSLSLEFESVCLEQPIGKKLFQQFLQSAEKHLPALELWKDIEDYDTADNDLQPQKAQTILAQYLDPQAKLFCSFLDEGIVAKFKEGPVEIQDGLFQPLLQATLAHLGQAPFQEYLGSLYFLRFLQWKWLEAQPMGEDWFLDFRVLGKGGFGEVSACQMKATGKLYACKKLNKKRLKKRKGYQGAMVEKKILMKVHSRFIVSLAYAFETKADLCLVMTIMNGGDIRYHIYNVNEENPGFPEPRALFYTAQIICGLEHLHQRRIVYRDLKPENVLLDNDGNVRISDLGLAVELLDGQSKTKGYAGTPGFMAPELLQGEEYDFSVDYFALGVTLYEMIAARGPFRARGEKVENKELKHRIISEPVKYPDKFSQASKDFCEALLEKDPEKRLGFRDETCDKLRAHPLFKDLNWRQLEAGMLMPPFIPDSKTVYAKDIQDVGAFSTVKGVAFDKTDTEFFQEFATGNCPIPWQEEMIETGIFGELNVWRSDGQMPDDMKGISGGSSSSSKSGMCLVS
Particulars: GRK1, 10 uM; for remaining activity at 10 µM: read-out: % Enzyme Activity (relative to DMSO controls).

Assay [8] has as its target T8, 382 unique human kinases (Homo sapiens, UniProt P10721, D816V/V560G).
T8 construct: purchased Reaction Biology (HotSpot contract assay)
The settings on record: c-Kit (V560G/D816V), [ATP] 20 µM, compound 10 uM; for remaining activity at 10 µM: read-out: % Enzyme Activity (relative to DMSO controls).

The target in assay [9] is T9, 382 unique human kinases (Homo sapiens, UniProt Q15349).
T9 construct: purchased Reaction Biology (HotSpot contract assay)
Particulars: RSK3, 10 uM; for remaining activity at 10 µM: read-out: % Enzyme Activity (relative to DMSO controls).

In assay [10] the target is T10, 382 unique human kinases (Homo sapiens, UniProt Q9UM73, G1269A).
T10 construct: purchased Reaction Biology (HotSpot contract assay)
Particulars: ALK (G1269A), [ATP] 2.5 µM, compound 10 uM; for remaining activity at 10 µM: read-out: % Enzyme Activity (relative to DMSO controls).

In assay [11] the target is T11, 382 unique human kinases (Homo sapiens, UniProt P10721, N822K/V560G).
T11 construct: purchased Reaction Biology (HotSpot contract assay)
Particulars: c-Kit (V560G/N822K), [ATP] 5 µM, compound 10 uM; for remaining activity at 10 µM: read-out: % Enzyme Activity (relative to DMSO controls).

Assay [12] deals with T12, 382 unique human kinases (Homo sapiens, UniProt Q9UM73, S1206R).
T12 construct: purchased Reaction Biology (HotSpot contract assay)
The settings on record: ALK (S1206R), [ATP] 20 µM, compound 10 uM; for remaining activity at 10 µM: read-out: % Enzyme Activity (relative to DMSO controls).

The target of assay [13] is T13, 382 unique human kinases (Homo sapiens, UniProt P00519, M351T).
T13 construct: purchased Reaction Biology (HotSpot contract assay)
Particulars: ABL1 (M351T), [ATP] 10 µM, compound 10 uM; for remaining activity at 10 µM: read-out: % Enzyme Activity (relative to DMSO controls).

In assay [14] the target is T14, 382 unique human kinases (Homo sapiens, UniProt P10721, Y823D).
T14 construct: purchased Reaction Biology (HotSpot contract assay)
The settings on record: c-Kit (Y823D), [ATP] 100 µM, compound 10 uM; for remaining activity at 10 µM: read-out: % Enzyme Activity (relative to DMSO controls).

For assay [15], the target named is T15, 382 unique human kinases (Homo sapiens, UniProt O15111).
T15 construct: purchased Reaction Biology (HotSpot contract assay)
T15 sequence (O15111 1-745): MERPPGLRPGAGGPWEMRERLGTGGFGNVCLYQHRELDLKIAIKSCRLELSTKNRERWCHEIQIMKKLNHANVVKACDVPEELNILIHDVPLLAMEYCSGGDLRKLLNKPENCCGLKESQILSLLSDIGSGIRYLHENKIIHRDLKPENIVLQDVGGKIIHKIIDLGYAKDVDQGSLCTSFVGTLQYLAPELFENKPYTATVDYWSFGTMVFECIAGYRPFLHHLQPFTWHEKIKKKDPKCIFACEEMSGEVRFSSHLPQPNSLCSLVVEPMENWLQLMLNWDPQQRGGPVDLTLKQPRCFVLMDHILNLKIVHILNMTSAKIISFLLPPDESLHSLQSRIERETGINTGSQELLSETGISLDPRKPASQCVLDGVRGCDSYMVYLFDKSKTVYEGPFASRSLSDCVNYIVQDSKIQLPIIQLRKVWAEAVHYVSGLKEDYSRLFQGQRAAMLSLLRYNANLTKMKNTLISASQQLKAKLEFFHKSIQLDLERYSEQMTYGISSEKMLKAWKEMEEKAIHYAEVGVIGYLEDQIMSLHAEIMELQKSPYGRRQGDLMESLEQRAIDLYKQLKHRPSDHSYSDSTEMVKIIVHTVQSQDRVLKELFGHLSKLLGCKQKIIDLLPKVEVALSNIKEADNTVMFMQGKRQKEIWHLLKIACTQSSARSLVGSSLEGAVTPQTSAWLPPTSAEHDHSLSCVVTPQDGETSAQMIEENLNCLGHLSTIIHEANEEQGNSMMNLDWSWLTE
Particulars: IKKa/CHUK, 10 uM; for remaining activity at 10 µM: read-out: % Enzyme Activity (relative to DMSO controls).

Assay [16] concerns the target T16, 382 unique human kinases (Homo sapiens, UniProt P06241, Y531F).
T16 construct: purchased Reaction Biology (HotSpot contract assay)
Particulars: FYN (Y531F), [ATP] 5 µM, compound 10 uM; for remaining activity at 10 µM: read-out: % Enzyme Activity (relative to DMSO controls).

Assay [17] addresses T17, 382 unique human kinases (Homo sapiens, UniProt Q9BYP7).
T17 construct: purchased Reaction Biology (HotSpot contract assay)
Particulars: WNK3, 10 uM; for remaining activity at 10 µM: read-out: % Enzyme Activity (relative to DMSO controls).

For assay [18], the target named is T18, 382 unique human kinases (Homo sapiens, UniProt P78368).
T18 construct: purchased Reaction Biology (HotSpot contract assay)
The settings on record: CK1g2, 10 uM; for remaining activity at 10 µM: read-out: % Enzyme Activity (relative to DMSO controls).

T5 sequence (P10721 26-976): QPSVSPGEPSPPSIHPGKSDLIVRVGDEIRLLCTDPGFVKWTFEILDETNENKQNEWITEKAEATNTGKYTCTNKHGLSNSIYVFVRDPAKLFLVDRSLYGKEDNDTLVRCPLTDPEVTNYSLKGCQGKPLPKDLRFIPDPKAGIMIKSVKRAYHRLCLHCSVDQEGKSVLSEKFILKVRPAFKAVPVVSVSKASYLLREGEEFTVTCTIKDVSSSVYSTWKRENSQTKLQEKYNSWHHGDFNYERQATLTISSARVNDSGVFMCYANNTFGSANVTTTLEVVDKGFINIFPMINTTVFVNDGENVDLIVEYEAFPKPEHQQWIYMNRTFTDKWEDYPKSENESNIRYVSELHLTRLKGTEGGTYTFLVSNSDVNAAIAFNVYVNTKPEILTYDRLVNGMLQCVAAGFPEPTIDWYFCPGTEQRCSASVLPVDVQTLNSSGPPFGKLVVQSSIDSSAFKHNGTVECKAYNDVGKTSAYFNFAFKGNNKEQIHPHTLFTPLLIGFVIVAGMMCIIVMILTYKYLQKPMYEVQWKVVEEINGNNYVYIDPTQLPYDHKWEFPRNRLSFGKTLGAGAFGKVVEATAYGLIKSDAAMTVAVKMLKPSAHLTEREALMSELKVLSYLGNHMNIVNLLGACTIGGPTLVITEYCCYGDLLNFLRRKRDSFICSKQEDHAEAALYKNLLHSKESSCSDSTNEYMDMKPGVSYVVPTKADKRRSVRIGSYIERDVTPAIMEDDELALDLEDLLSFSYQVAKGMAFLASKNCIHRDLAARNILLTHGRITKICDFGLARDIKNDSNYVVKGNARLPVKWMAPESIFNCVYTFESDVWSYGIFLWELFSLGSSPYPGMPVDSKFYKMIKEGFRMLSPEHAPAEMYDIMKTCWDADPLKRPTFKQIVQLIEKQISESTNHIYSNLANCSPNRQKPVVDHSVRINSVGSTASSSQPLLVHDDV
T16 sequence (P06241 whole entry Y531F): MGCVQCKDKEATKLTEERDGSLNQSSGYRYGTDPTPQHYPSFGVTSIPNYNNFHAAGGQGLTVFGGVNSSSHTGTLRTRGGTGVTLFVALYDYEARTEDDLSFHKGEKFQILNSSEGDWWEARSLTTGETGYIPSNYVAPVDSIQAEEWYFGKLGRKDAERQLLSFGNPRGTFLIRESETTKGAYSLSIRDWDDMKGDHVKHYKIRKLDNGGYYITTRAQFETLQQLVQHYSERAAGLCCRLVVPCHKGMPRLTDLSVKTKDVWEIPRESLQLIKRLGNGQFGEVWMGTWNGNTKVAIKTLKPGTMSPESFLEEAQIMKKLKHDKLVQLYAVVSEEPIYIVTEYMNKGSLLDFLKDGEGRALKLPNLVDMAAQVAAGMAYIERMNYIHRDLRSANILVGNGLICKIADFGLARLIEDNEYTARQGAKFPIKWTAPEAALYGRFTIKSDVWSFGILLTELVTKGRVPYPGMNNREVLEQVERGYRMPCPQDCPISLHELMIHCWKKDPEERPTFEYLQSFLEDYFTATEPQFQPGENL
T18 sequence (P78368 whole entry): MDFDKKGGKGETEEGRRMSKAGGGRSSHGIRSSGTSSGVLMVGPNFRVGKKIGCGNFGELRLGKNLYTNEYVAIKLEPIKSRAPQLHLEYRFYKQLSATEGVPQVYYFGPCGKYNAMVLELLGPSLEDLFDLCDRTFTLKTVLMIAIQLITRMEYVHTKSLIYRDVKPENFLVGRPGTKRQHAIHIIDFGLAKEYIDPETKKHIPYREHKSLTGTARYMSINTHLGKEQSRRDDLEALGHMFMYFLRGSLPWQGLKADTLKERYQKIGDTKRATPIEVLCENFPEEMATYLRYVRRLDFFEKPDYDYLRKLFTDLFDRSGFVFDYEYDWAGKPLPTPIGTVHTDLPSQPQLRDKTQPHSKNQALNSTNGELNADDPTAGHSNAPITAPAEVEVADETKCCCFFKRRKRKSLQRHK
T17 sequence (Q9BYP7 whole entry): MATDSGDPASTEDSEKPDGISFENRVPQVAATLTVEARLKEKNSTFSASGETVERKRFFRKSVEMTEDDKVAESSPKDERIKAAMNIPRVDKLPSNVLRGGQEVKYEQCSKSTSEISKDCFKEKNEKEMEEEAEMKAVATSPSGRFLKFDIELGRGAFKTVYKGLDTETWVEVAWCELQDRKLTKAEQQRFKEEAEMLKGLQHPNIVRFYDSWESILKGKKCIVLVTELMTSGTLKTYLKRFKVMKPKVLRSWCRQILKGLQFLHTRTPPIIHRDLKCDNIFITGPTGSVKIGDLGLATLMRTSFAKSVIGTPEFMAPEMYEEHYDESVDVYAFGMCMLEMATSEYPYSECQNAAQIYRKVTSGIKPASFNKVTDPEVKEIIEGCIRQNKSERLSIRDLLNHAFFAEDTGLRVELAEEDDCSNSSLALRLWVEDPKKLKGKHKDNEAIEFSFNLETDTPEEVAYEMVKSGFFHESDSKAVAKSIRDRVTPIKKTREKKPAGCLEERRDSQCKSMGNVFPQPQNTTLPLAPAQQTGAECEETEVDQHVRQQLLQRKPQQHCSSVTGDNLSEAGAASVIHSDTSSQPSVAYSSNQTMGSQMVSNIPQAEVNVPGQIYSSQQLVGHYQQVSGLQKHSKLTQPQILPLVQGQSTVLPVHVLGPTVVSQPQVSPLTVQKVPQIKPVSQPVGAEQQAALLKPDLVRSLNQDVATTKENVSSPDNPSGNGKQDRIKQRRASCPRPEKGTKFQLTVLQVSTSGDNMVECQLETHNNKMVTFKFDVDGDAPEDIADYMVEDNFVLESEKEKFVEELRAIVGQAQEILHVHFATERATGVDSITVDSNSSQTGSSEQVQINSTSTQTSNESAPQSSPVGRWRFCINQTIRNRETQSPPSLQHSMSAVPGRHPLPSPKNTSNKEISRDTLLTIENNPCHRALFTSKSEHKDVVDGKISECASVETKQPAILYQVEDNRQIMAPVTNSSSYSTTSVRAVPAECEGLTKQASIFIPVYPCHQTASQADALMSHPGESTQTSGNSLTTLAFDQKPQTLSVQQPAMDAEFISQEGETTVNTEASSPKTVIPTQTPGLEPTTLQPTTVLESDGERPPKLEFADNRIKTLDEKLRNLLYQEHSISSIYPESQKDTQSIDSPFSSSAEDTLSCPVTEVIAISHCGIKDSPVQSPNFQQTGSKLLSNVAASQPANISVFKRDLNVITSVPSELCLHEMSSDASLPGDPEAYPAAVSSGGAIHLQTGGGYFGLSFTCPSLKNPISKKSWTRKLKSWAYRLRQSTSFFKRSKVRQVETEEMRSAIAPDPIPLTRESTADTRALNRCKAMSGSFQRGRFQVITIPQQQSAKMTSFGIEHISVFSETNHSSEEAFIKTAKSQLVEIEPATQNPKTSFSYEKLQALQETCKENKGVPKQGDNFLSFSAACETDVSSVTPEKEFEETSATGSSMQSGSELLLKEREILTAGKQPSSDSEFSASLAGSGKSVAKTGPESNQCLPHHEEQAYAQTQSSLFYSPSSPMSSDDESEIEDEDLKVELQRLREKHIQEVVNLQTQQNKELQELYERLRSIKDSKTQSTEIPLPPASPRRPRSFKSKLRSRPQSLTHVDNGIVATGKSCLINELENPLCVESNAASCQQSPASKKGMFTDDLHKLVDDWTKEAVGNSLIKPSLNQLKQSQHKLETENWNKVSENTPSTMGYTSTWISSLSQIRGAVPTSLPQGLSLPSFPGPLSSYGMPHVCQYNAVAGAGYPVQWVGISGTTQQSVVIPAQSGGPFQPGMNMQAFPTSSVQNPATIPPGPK
T14 sequence (P10721 26-976 Y823D): as the sequence (P10721 26-976) above, with Y798D counted along it
T1 sequence (P24723 whole entry): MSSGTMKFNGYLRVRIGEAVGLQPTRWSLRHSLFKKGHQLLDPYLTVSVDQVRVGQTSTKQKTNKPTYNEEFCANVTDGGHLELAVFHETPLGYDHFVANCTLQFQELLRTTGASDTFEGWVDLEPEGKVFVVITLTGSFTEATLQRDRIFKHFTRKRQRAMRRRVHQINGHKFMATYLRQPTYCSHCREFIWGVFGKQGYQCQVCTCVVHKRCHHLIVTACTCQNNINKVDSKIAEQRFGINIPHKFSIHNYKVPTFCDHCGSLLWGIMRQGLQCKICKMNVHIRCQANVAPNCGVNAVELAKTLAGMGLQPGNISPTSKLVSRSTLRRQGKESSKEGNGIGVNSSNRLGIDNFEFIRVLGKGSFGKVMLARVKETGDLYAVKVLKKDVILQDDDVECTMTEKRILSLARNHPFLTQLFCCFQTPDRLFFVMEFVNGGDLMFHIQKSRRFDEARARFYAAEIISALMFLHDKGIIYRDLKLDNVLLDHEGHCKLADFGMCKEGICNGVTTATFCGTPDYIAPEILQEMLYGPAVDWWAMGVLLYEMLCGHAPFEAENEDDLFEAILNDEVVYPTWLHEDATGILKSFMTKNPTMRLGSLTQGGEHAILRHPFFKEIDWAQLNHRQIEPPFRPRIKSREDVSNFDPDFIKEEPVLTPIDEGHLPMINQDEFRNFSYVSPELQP
T11 sequence (P10721 26-976 V560G/N822K): as the sequence (P10721 26-976) above, with V535G, N797K counted along it
T8 sequence (P10721 26-976 V560G/D816V): as the sequence (P10721 26-976) above, with V535G, D791V counted along it

As to `CC(C)c1cc(-c2n[nH]c(=O)n2-c2ccc3c(ccn3C)c2)c(O)cc1O` [Ganetespib (STA9090)], the remaining activity at 10 µM on 382 unique human kinases [1] turned out to be 75.8%; on 382 unique human kinases [2], 87.6%; on 382 unique human kinases [3] it was 108%; on 382 unique human kinases [4], 72.8%; on 382 unique human kinases [5] it was 80.8%; at 382 unique human kinases [6], 62.6%. The remaining activity at 10 µM at 382 unique human kinases [7] was found to be 76%.
As for `CC(C)c1cc(-c2n[nH]c(=O)n2-c2ccc3c(ccn3C)c2)c(O)cc1O` [Ganetespib], the remaining activity at 10 µM at 382 unique human kinases [8] amounted to 24.3%; on 382 unique human kinases [9] it was 119%; at 382 unique human kinases [10], 55.7%; on 382 unique human kinases [11] it was 41.8%; at 382 unique human kinases [12], 42%; at 382 unique human kinases [13] it was 1.72%. The remaining activity at 10 µM is 49.7% on 382 unique human kinases [14]; 103% at 382 unique human kinases [15]; 7.4% at 382 unique human kinases [16]; 98.1% at 382 unique human kinases [17]; 110% at 382 unique human kinases [18].
Take `CCNC(=O)c1noc(-c2cc(C(C)C)c(O)cc2O)c1-c1ccc(CN2CCOCC2)cc1` [Luminespib (AUY-922)]: the “% Enzyme Activity (relative to DMSO controls)” value on 382 unique human kinases [1] was 105.31%; at 382 unique human kinases [2], 98.43%; on 382 unique human kinases [4], 112.00%; on 382 unique human kinases [5], 72.90%; on 382 unique human kinases [6], 95.71%; on 382 unique human kinases [7] it was 85.44%. In addition, the remaining activity at 10 µM at 382 unique human kinases [1] amounted to 106%; on 382 unique human kinases [2] it was 99.7%; at 382 unique human kinases [3], 104%; at 382 unique human kinases [4], 114%; on 382 unique human kinases [5] it was 72.9%; on 382 unique human kinases [6], 96.6%. The remaining activity at 10 µM on 382 unique human kinases [7] was determined as 85.9%.
With `CCNC(=O)c1noc(-c2cc(C(C)C)c(O)cc2O)c1-c1ccc(CN2CCOCC2)cc1` [Luminespib], the “% Enzyme Activity (relative to DMSO controls)” value at 382 unique human kinases [8] is 61.63%; on 382 unique human kinases [9], 94.51%; at 382 unique human kinases [10] it was 90.09%; on 382 unique human kinases [11] it was 75.80%; at 382 unique human kinases [12], 100.88%; on 382 unique human kinases [13], 5.21%. Besides, the “% Enzyme Activity (relative to DMSO controls)” value at 382 unique human kinases [14] is 59.05%; at 382 unique human kinases [15], 93.54%; on 382 unique human kinases [16] it was 23.48%; on 382 unique human kinases [17], 110.27%; at 382 unique human kinases [18] it was 97.43%. In addition, the remaining activity at 10 µM on 382 unique human kinases [8] was determined as 61.7%; on 382 unique human kinases [9], 95.2%; on 382 unique human kinases [10], 90.3%; on 382 unique human kinases [11], 76.2%; at 382 unique human kinases [12], 104%; on 382 unique human kinases [13], 5.53%. The remaining activity at 10 µM on 382 unique human kinases [14] worked out at 60.2%; on 382 unique human kinases [15], 94.7%; at 382 unique human kinases [16], 24.2%; on 382 unique human kinases [17] it was 112%; on 382 unique human kinases [18], 99.4%.
